Assay results taken from the NIST ThermoML archive (doi:10.1021/je700428f).

Legend:
[1] = 101 kPa, Liquid; for viscosity: Capillary tube (Ostwald / Ubbelohde) method
[2] = xn = mol fraction of the nth substance listed; conditions: 101 kPa, Liquid

CCCCCCCCCC [decane]
[1]
Conditions | mass density [kg/m3]
273.15 K | 745.374
278.15 K | 741.257
283.15 K | 737.502
288.15 K | 733.733
293.15 K | 729.958
298.15 K | 726.174
303.15 K | 722.377
308.15 K | 718.573
313.15 K | 714.753
318.15 K | 710.92
323.15 K | 707.074
328.15 K | 703.213
333.15 K | 699.334
338.15 K | 695.439
343.15 K | 691.522
348.15 K | 687.587
353.15 K | 683.631
358.15 K | 679.651
363.15 K | 675.648

CCCCCCCCCC [decane] + COC(C)(C)C
[2], x2 = 0
Conditions | mass density [kg/m3]
273.15 K | 745.374
278.15 K | 741.257
283.15 K | 737.502
288.15 K | 733.733
293.15 K | 729.958
298.15 K | 726.174
303.15 K | 722.377
308.15 K | 718.573
313.15 K | 714.753
318.15 K | 710.92
323.15 K | 707.074
328.15 K | 703.213
333.15 K | 699.334
338.15 K | 695.439
343.15 K | 691.522
348.15 K | 687.587
353.15 K | 683.631
358.15 K | 679.651
363.15 K | 675.648

COC(C)(C)C [2-methoxy-2-methylpropane] + CCCCCCCCC
[2], x1 = 1
Conditions | mass density [kg/m3]
273.15 K | 761.34
278.15 K | 756.14
283.15 K | 751.02
288.15 K | 745.85
293.15 K | 740.65
298.15 K | 735.4
303.15 K | 730.1
308.15 K | 724.82
313.15 K | 719.42
318.15 K | 713.96

CCCCCCCCC [nonane]
[1]
Conditions | mass density [kg/m3] | viscosity [mPa·s]
273.15 K | 733.184 | 0.972
278.15 K | 729.335 | 0.896
283.15 K | 725.473 | 0.828
288.15 K | 721.603 | 0.768
293.15 K | 717.725 | 0.716
298.15 K | 713.834 | 0.669
303.15 K | 709.929 | 0.628
308.15 K | 706.011 | 0.59
313.15 K | 702.076 | 0.555
318.15 K | 698.124 | 0.522
323.15 K | 694.151 | 0.493
328.15 K | 690.165 | 0.466
333.15 K | 686.154 | 0.442
338.15 K | 682.116 | 0.42
343.15 K | 678.06 | 0.399
348.15 K | 673.979 | 0.38
353.15 K | 669.872 | 0.362
358.15 K | 665.73 | 0.346
363.15 K | 661.557 | –

COC(C)(C)C [2-methoxy-2-methylpropane]
[1]
Conditions | mass density [kg/m3]
273.15 K | 761.34
278.15 K | 756.14
283.15 K | 751.02
288.15 K | 745.85
293.15 K | 740.65
298.15 K | 735.4
303.15 K | 730.1
308.15 K | 724.82
313.15 K | 719.42
318.15 K | 713.96
